This is an account of results in ChEMBL document CHEMBL3507680, “University of Dundee, Gates Library screen for HepG2 cell viability”.

This series in a line: Human HepG2 cell viability assay in 384 well format. Format: toxicity, cell-based. Also on record: dose 125 nL, time 70.5 hour; concentration not given beside the values. The note with it: HepG2 cells, read-out: Inhibition.
For the compound `O=C(c1ccccc1F)N1CC(c2nc(C3CC3)no2)C1`, the cytotoxicity at 70.5 h is -11.5%.
The value for `O=C(Nc1cccs1)N1CC(c2nc(C3CC3)no2)C1` was -5.71%; that for `O=C(C1CCCC1)N1CC(c2nc(Cc3ccccc3)no2)C1` was -14.5%.
For `CCOC(=O)CCC(=O)N1CC(c2nc(Cc3ccccc3)no2)C1`, the cytotoxicity at 70.5 h was -6.9%.
For `Cc1noc(C2CN(CC(=O)NCC3CCCO3)C2)n1` (configuration not stated) the value was -3.62%; for `N#Cc1cccc(C(=O)N2CC(c3nc(-c4cccnc4)no3)C2)c1`, 10%; for `O=C(Cc1cccs1)N1CC(c2nc(-c3cnccn3)no2)C1`, -6.93%.
`O=C(c1ccsc1)N1CC(c2nc(-c3ccc[nH]c3=O)no2)C1`: the cytotoxicity at 70.5 h was determined as 12.8%.
With `O=C(c1ccc(Cl)s1)N1CC(c2nc(-c3ccc[nH]c3=O)no2)C1`, the cytotoxicity at 70.5 h is -8.84%.
The value for `O=C(c1ccno1)N1CC(c2nc(-c3ccco3)no2)C1` was -1.91%.
The value for `O=C(NCC(Cc1cccc(F)c1)N1CCCC1=O)c1ccc(=O)[nH]n1` (configuration not stated) was 1.13%; that for `CCCC(=O)NCC(Cc1cccc(F)c1)N1CCCC1=O` (configuration not stated) was -3.15%; that for `CS(=O)(=O)NCC(Cc1cccc(F)c1)N1CCNC1=O` (configuration not stated) was -13.3%.
The value for `O=S(=O)(Cc1ccccc1Cl)N1CCC2(CC1)OCCS2` was -5.23%; that for `CCc1ccccc1NC(=O)C1CN(C(C)=O)C1` was 11.2%; that for `N#Cc1ccccc1NC(=O)C1CN(C(=O)c2ccc3c(c2)OCO3)C1` was -7%.
Regarding `O=C(Cc1cccs1)N1CCOCC1CO` (configuration not stated), the cytotoxicity at 70.5 h is -3.61%.
The value for `C1CCN(c2nc(N3CCOCC3)nc3[nH]nnc23)CC1` was -5.52%; that for `O=C(NC1CCCC1)C1CCN(c2cc(-n3ccnc3)ncn2)CC1` was 12.8%.
The value for `Cc1cccc(S(=O)(=O)NCC2CCN(c3cnccn3)CC2)c1` was -10.1%.
The value for `CCc1ccc(S(=O)(=O)NCC2CCN(c3cnccn3)CC2)s1` was -10.3%; that for `O=C(Cc1ccccc1Cl)NCCN1CCC(c2cccs2)CC1` was 1.31%.
Turning to `O=C(NCCc1ccccc1)NCCN1CCC(c2cccs2)CC1`, the cytotoxicity at 70.5 h stood at 8.49%.
With `CSCC(C)(O)CNC(=O)c1cc(Cl)ccc1Cl` (configuration not stated), the cytotoxicity at 70.5 h is -7.98%.
Regarding `CSCC(C)(O)CNS(=O)(=O)c1ccc(F)cc1` (configuration not stated), the cytotoxicity at 70.5 h was -7.51%.
The value for `CSCC(C)(O)CNS(=O)(=O)c1cccc(Cl)c1` (configuration not stated) was -4.18%; that for `CSCC(C)(O)CNS(=O)(=O)c1ccc(Br)cc1` (configuration not stated) was 23.8%; that for `CSCCC(C)(O)CNC(=O)Nc1ccccc1C` (configuration not stated) was -6.41%.
For `O=C(NCCC(O)c1ccco1)c1ccco1` (configuration not stated) the value was -5.28%; for `CSc1ncccc1C(=O)NCCC(O)c1ccco1` (configuration not stated), 1.61%; for `O=C(NCCC(O)c1cccs1)c1ccc(Br)o1` (configuration not stated), -10.7%.
The value for `COc1ccc(Cl)cc1NC(=O)N1CCc2nc(NC(C)=O)sc2C1` was -5.4%; that for `O=C(Nc1nc2c(s1)CN(S(=O)(=O)C1CC1)CC2)c1ccc(=O)[nH]c1` was -10.9%.
Regarding `COc1ccccc1C(=O)Nc1nc2c(s1)CN(S(=O)(=O)C1CC1)CC2`, the cytotoxicity at 70.5 h is -3.51%.
The value for `Cc1cc(C(=O)Nc2nc3c(s2)CN(S(=O)(=O)C2CC2)CC3)c(C)o1` was 4.31%; that for `O=C(Nc1nc2c(s1)CN(S(=O)(=O)C1CC1)CC2)c1ccc(Cl)s1` was -11.1%.
The value for `O=C(NCC1(O)CCOCC1)c1ccc(F)cc1` was -4.94%; that for `O=S(=O)(NCC1(O)CCOCC1)c1c(F)cccc1F` was -2.88%.
The value for `O=S(=O)(NCC1(O)CCOCC1)c1ccccc1Br` was -0.33%; that for `COc1ccccc1OCC(=O)NCC(C)(O)c1ccccc1` (configuration not stated) was -12.5%.
For `O=S(=O)(NCC1(O)CCOc2ccccc21)c1ccccc1F` (configuration not stated), the cytotoxicity at 70.5 h was -4.25%.
In the case of `O=S(=O)(NCC1(O)CCOc2ccccc21)c1ccccc1Br` (configuration not stated), the cytotoxicity at 70.5 h was -0.163%.
The value for `Cc1cc(CNC(=O)c2ccno2)c(C)o1` was -7.21%; that for `Cc1cc(CNC(=O)COc2ccccc2F)c(C)o1` was -0.958%.
On to `COc1cc(NC(=O)NCc2cc(C)oc2C)cc(OC)c1`, for which the cytotoxicity at 70.5 h was -5.36%.
The value for `O=C1CC(NS(=O)(=O)c2ccc(Br)cc2)CN1` (configuration not stated) was -4.25%; that for `O=C(NC1CC(=O)N(C2CC2)C1)c1cccs1` (configuration not stated) was 11.1%.
For the compound `CN(C)C(=O)c1cnn2c1OCCC2`, the cytotoxicity at 70.5 h was -2.65%.
Turning to `CS(=O)(=O)N1CCN(C(=O)c2cnn3c2OCCC3)CC1`, the cytotoxicity at 70.5 h was -2.74%.
With `COc1ccccc1C(=O)N1CC2(COC(C)(C)OC2)C1`, the cytotoxicity at 70.5 h is -0.0905%.
For `CC1(C)OCC2(CO1)CN(C(=O)c1ccccc1Br)C2` the value was -4.2%; for `CC(=O)Nc1cnc(-n2ccnc2)nc1`, -1.27%.
Turning to `CC(=O)N(C)CC(=O)Nc1cnc(-n2ccnc2)nc1`, the cytotoxicity at 70.5 h worked out at 0.242%.
For `COc1ccc(NC(=O)Nc2cnc(N3CCN(C)CC3)nc2)cc1Cl` the value was -0.129%; for `Cc1ccc(NC(=O)Nc2cnc(N3CCN(C)CC3)nc2)cc1`, 27.1%.
On to `O=S(=O)(Nc1cnc(N2CCCC2)nc1)c1ccc(F)cc1F`, for which the cytotoxicity at 70.5 h was -6.31%.
Consider `Cc1ccc(F)cc1S(=O)(=O)Nc1cnc(N2CCCC2)nc1`, for which the cytotoxicity at 70.5 h is -9.37%.
The value for `O=C(C[C@H]1[C@H]2CN(C(=O)c3cccnc3)C[C@@H]12)Nc1cccnc1` was -1.44%; that for `CCCN1CCC2(Cc3ccccc3NC2=O)C1` (configuration not stated) was -0.983%; that for `CCOCC(=O)N1CC[C@H]2OCC[C@@H](c3nnc(C)o3)[C@H]2C1` was 0.355%.
`Fc1cnc(N2CCOCC3(CCCNC3)C2)nc1` (configuration not stated): the cytotoxicity at 70.5 h came out at 12.2%.
Regarding `CC(C)n1ccnc1CN1CCCN(C(=O)c2ncccc2O)CC1`, the cytotoxicity at 70.5 h turned out to be 0.148%.
The value for `Cc1cc(C2CCCN2Cc2cc(=O)n(C)c(=O)n2C)no1` (configuration not stated) was 18.5%.
The value for `Cn1cnc2c1CCN(Cc1csc(-c3ccc(F)cc3)n1)C2` was -3.43%; that for `c1ncn(CC2CCCN(Cc3cn4ccsc4n3)C2)n1` (configuration not stated) was -5.75%.
For `Cn1cc(CN2CCCN(C(=O)c3ccccn3)CC2)cn1` the value was -1.29%; for `CC(C(=O)NC1CC1)N1CCN(Cc2ccn(C)c(=O)c2)CC1` (configuration not stated), 0.0611%.
On to `O=C(NCC1CCOC1)Nc1ccc(Oc2cccc(F)c2)nc1` (configuration not stated), for which the cytotoxicity at 70.5 h was -10.7%.
The value for `CN1CC(C(=O)NCc2ccnc(-n3cccn3)c2)CC1=O` (configuration not stated) was -22.4%; that for `CN(C)c1ccc(C(=O)N2CCN(c3cnccn3)CC2)cn1` was -17.1%.
With `CCC1c2ccsc2CCN1C(=O)NCc1ccnc(N(C)C)c1` (configuration not stated), the cytotoxicity at 70.5 h was -9.44%.
`CN(C)c1cc(C(=O)N2CCN(c3nccs3)CC2)ccn1`: the cytotoxicity at 70.5 h is -13.8%.
The value for `CCC1c2ccsc2CCN1C(=O)NCc1cccnc1OC` (configuration not stated) was -11.2%; that for `COc1cccc(-n2nnc(C(=O)N3CCCC(C)C3)c2C)c1` (configuration not stated) was -10.2%.
For `O=C(Nc1nccs1)NC1CCN(Cc2ccccc2)CC1` the value was -15.7%; for `CN(C)c1cc(C(=O)N2CCN(c3cc(C#N)ccn3)CC2)ccn1`, -16.5%.
For `CCN1CC(C(=O)NCc2ccnc(-n3cccn3)c2)CC1=O` (configuration not stated), the cytotoxicity at 70.5 h is -4.01%.
Take `O=C(c1ccc2c(c1)CCCC2)N1CCN(c2cnccn2)CC1`: the cytotoxicity at 70.5 h is -11.8%.
Turning to `CC(Nc1cccc(CN2CCOC2=O)c1)C(=O)Nc1cccc(F)c1` (configuration not stated), the cytotoxicity at 70.5 h is -0.899%.
For the compound `COc1ccccc1N1CCN(C(=O)c2ccnc(N(C)C)c2)CC1`, the cytotoxicity at 70.5 h came out at 36.2%.
For `Cn1cc(NC(=O)C2CC(c3ccccc3)C2)ccc1=O` (configuration not stated) the value was -15.7%; for `O=C(Cc1cn2ccsc2n1)N1CCCC(n2cccn2)C1` (configuration not stated), -3.32%; for `COc1cccc(-n2nnc(C(=O)N3CCOC(C)C3)c2C)c1` (configuration not stated), -1.7%.
For `Cn1cc(NC(=O)N2CCC2c2ccccc2)ccc1=O` (configuration not stated) the value was -4.87%; for `c1cncc(-c2noc(CNCC3CCCN3c3cccnn3)n2)c1` (configuration not stated), -2.21%.
Regarding `Cc1nc(C(=O)N2CCCN(Cc3cnn(C)c3)CC2)ccc1C#N`, the cytotoxicity at 70.5 h is -8.5%.
Turning to `CC(C)Oc1ccc(C(=O)N2CCCCC2Cn2cccn2)cn1` (configuration not stated), the cytotoxicity at 70.5 h is -4.78%.
Consider `CCOc1ccc(C(=O)N2CCCC2Cn2cc(C)cn2)cn1` (configuration not stated), for which the cytotoxicity at 70.5 h is -5.61%.
On to `NC(=O)CN1CC(c2nc(C3CC3)no2)C1`, for which the cytotoxicity at 70.5 h is -7.4%.
The value for `O=C(CN1CC(c2nc(C3CC3)no2)C1)NCc1ccc(F)cc1` was -4.69%; that for `O=C(CN1CC(c2nc(C3CC3)no2)C1)NCC1CCCO1` (configuration not stated) was 3.91%.
As for `O=C(CN1CC(c2nc(Cc3ccccc3)no2)C1)NCC1CCCO1` (configuration not stated), the cytotoxicity at 70.5 h is -0.885%.
In the case of `O=C(CN1CC(c2nc(-c3ccco3)no2)C1)NCc1ccc(F)cc1`, the cytotoxicity at 70.5 h stood at 0.546%.
Regarding `O=C(CN1CC(c2nc(-c3ccco3)no2)C1)NCC1CCCO1` (configuration not stated), the cytotoxicity at 70.5 h was 13.7%.
For `Fc1ccc(COCC2CCN(Cc3ccccn3)CC2)cc1` the value was -4.18%; for `CNC(=O)C1CCC2(CCN(c3nncs3)CC2)CO1` (configuration not stated), -2.99%.
On to `O=C(C[C@H]1[C@H]2CN(c3ncccn3)C[C@@H]12)Nc1cccnc1`, for which the cytotoxicity at 70.5 h was determined as 4.76%.
The value for `CN(Cc1ccncc1)C1CC2(CCN(c3ncccn3)CC2)C1` was -3.37%; that for `CN(C)CC1COCCN1C(=O)c1ccccc1C(=O)c1ccccc1` (configuration not stated) was -7.66%.
For `Cc1ccccc1C(=O)N1CCOCC1CN(C)C` (configuration not stated) the value was -9.03%; for `COc1cccc(C(=O)N2CCOCC2CN(C)C)c1OC` (configuration not stated), -2.02%.
For `CN(C)CC1COCCN1C(=O)C1(c2cccs2)CCCC1` (configuration not stated) the value was 0.993%.
